The record followed here is PubChem BioAssay AID1996.

Each structure is given as a SMILES string. Values after ≈ are worked out from the molar mass of the structure shown.

For the data set the following is noted: buffer; pH 7.4; 200.0 µM.
For `COc1ccc(CCNC(=O)COC(=O)c2cnc(Cl)c(Cl)c2)cc1`, the kinetic solubility was found to be 5.4 µg/mL (≈ 14.1 µM).

The compound `CCn1c(C)nc2cc(C(=O)NNC(=O)CN(C)S(=O)(=O)c3ccc(NC(C)=O)cc3)ccc21` gave a solubility (kinetic) of over 73 µg/mL.

The compound `CC1CCN(CCn2c(=S)[nH]c3ccccc3c2=O)CC1` came in with a solubility (kinetic) of 43.3 µg/mL (≈ 143 µM).

`COc1ccc(NC(=O)c2cc(=O)[nH]c3ccccc23)cc1` had a kinetic solubility of 2.1 µg/mL (≈ 7.14 µM).

For the compound `Cc1ccc(OCC(=O)Nc2ccccc2F)cc1C`, the solubility (kinetic) was determined as 3.2 µg/mL (≈ 11.7 µM).

In turn, `O=C(CN1C(=O)c2ccccc2S1(=O)=O)Nc1ncc(Cl)cc1Cl` returned a kinetic solubility of over 57.9 µg/mL.

`CC(C)(C)Nc1nc2ccc([N+](=O)[O-])cc2o1` showed a kinetic solubility of 31.9 µg/mL (≈ 136 µM).

For the compound `COc1ccc(OC)c2nc(-c3cccnc3)ccc12`, the kinetic solubility is over 39.9 µg/mL.

The compound `Cc1c(Cl)cccc1NC(=O)CSC(N)=O` returned a kinetic solubility of 15.6 µg/mL (≈ 60.3 µM).

`O=c1[nH]c(=S)n(C2CC2)c(O)c1C=NCCN1CCOCC1` had a solubility (kinetic) of over 48.7 µg/mL.

Take `CSCCNCc1c(C(=O)N2CCOCC2)nc2c(C)cccn12`: the solubility (kinetic) turned out to be 46.1 µg/mL (≈ 132 µM).

Regarding `CCN(CC(=O)NCc1cccs1)C(=O)c1cccc(S(=O)(=O)N2CC(C)OC(C)C2)c1` (centres undefined), the solubility (kinetic) was over 71.9 µg/mL.

Take `CC(C)(C)C(=O)NC(=S)N1CCc2ccccc21`: the solubility (kinetic) was 31 µg/mL (≈ 118 µM).

`O=C1CNC(=O)N1c1ccc(Cl)cc1` returned a solubility (kinetic) of over 31.6 µg/mL.

Regarding `CCC(C)c1ccc(NC(=O)N2CCOCC2)cc1` (centres undefined), the solubility (kinetic) stood at 37.4 µg/mL (≈ 143 µM).

In turn, `O=C(Nc1cccc(S(=O)(=O)N2CCCC2)c1)c1cccnc1` registered a solubility (kinetic) of 37.7 µg/mL (≈ 114 µM).

With `O=C(Nc1cc(Cl)ncn1)c1ccccc1`, the solubility (kinetic) is 34.2 µg/mL (≈ 146 µM).

Compound `OCCN1CCN(C(=S)Nc2ccc(SC(F)F)cc2)CC1` registered a solubility (kinetic) of over 52.1 µg/mL.

For the compound `O=S(=O)(NCc1ccccc1)c1ccc(Br)s1`, the solubility (kinetic) stood at 21.3 µg/mL (≈ 64.1 µM).

As for `CCCn1c(=O)c(C(=O)Nc2ncccc2O)c(O)c2ccccc21`, the kinetic solubility came to 4.1 µg/mL (≈ 12.1 µM).

In turn, `O=C(Nc1ccccc1Cl)NC1CCCCCCC1` had a kinetic solubility of 0.4 µg/mL (≈ 1.42 µM).

`COC(=O)c1sccc1NC(=O)Nc1ccc(OC)cc1OC` displayed a kinetic solubility of 15.4 µg/mL (≈ 45.8 µM).

As to `Cc1nc2ccc(NC(=O)[C@H](C)N3C(=O)C4CC=CCC4C3=O)cc2s1` (some centres undefined), the solubility (kinetic) is over 55.4 µg/mL.

The compound `Oc1ccc(/C=C/c2ccc3cccc(O)c3n2)cc1Br` yielded a kinetic solubility of 1.1 µg/mL (≈ 3.21 µM).

For `O=C(NCc1ccccc1)N1CCOc2ccccc21`, the kinetic solubility came out at 31.3 µg/mL (≈ 117 µM).

On to `O=S(=O)(c1cnc[nH]1)N1CCN(c2ccc(F)cc2)CC1`, for which the solubility (kinetic) turned out to be 5.8 µg/mL (≈ 18.7 µM).

On to `COc1cccc(-n2cnc3sc4c(c3c2=O)CCC4)c1`, for which the kinetic solubility turned out to be 5.9 µg/mL (≈ 19.8 µM).

The compound `CSCCC(NC(=O)C1CCCC1)c1nnc2ccccn12` (centres undefined) yielded a kinetic solubility of over 47.8 µg/mL.

As for `CC(C)C(=O)Nc1cc(S(=O)(=O)N2CCOCC2)ccc1N1CCCCC1`, the kinetic solubility came out at 49 µg/mL (≈ 124 µM).

With `CCCC(=O)OCC(=O)Nc1ccc2[nH]c(=O)[nH]c2c1`, the kinetic solubility is over 41.6 µg/mL.

Compound `Cc1ccccc1CC(=O)NC1CCN(C)CC1` registered a solubility (kinetic) of over 37 µg/mL.

Take `O=C(CN1C(=O)NC2(CCCCCC2)C1=O)NCc1ccccc1Cl`: the solubility (kinetic) is over 54.6 µg/mL.

The compound `Cc1oc2ccccc2c1CNC(=O)N(C)C` yielded a kinetic solubility of over 34.8 µg/mL.

For `O=C(NC1CC2CCCC(C1)N2Cc1ccccc1)c1cccc(F)c1` (centres undefined), the kinetic solubility stood at 45.1 µg/mL (≈ 128 µM).

`CC(C)(C)C(=O)COC(=O)C1=NN(c2ccccc2)C(=O)CC1` registered a solubility (kinetic) of over 47.5 µg/mL.

`N=C1SCC(=O)N1c1ncc(Cc2ccccc2Cl)s1` returned a solubility (kinetic) of 2.2 µg/mL (≈ 6.79 µM).

In turn, `CC(=O)Nc1nc2c(s1)C(=O)NCC(C)(C)C2` registered a solubility (kinetic) of over 38 µg/mL.

The compound `CN(CC(=O)Nc1ccccc1C(F)(F)F)C(=O)C1CC1` gave a kinetic solubility of over 45 µg/mL.

The compound `Cc1cccc(N2CCN(C(=O)CCc3nc4ccccc4c(=O)[nH]3)CC2)c1C` displayed a solubility (kinetic) of 2 µg/mL (≈ 5.12 µM).

In the case of `Cc1onc(-c2ccccc2Cl)c1C(=O)N1CCCCCC1`, the solubility (kinetic) is over 47.8 µg/mL.

Regarding `Cc1nc(SC(C)C(=O)NC2CCCCC2C)c2c(C)c(C)sc2n1` (centres undefined), the solubility (kinetic) was under 0.3 µg/mL.

`COc1cc2c(cc1OC)C(C)N(C(=O)c1cc3c(C)cc(C)cc3[nH]1)CC2` (centres undefined) returned a kinetic solubility of 4.7 µg/mL (≈ 12.4 µM).

The compound `COc1ccc(C(=O)NCCCc2ccccc2)cc1OC` showed a kinetic solubility of over 44.9 µg/mL.

In turn, `O=C(OCc1cccc(C(F)(F)F)c1)c1ccc[nH]c1=O` yielded a kinetic solubility of over 44.6 µg/mL.

The compound `c1ccc(CCN2CN=C(Nc3nc4ccccc4s3)NC2)cc1` came in with a kinetic solubility of under 0.1 µg/mL.

Compound `Cc1ccccc1CSCC(=O)NCCSc1ccccn1` came in with a kinetic solubility of 49.1 µg/mL (≈ 148 µM).

As to `CN(C(=O)CSCC(=O)Nc1ccc(Cl)cc1)C1CCCCC1`, the kinetic solubility amounted to 5.9 µg/mL (≈ 16.6 µM).

As for `COc1cc(NS(=O)(=O)c2cn(C)cn2)cc(OC)c1`, the kinetic solubility was determined as 8.9 µg/mL (≈ 29.9 µM).

On to `CS(=O)(=O)c1ccc(NC(=O)CN2C(=O)C3CCCCC3C2=O)cc1` (centres undefined), for which the solubility (kinetic) is over 54.7 µg/mL.

Regarding `CCCOc1ccc(/C=C/C(=O)NC2CCCCC2)cc1OC`, the solubility (kinetic) was under 0.7 µg/mL.

In the case of `COCC(C)n1c(SCC(=O)NC2CCCCC2C)nc2ccccc2c1=O` (centres undefined), the solubility (kinetic) is over 60.5 µg/mL.

`COC(=O)c1cc(N2CCNCC2)nc2ccccc12.Cl` yielded a kinetic solubility of 39.9 µg/mL.

Turning to `COC(=O)Cc1ccc(NC(=S)NCCO)cc1`, the solubility (kinetic) is 39.3 µg/mL (≈ 146 µM).

`COc1ccc(-n2c(C)c(C)c3c(NCCO)ncnc32)cc1`: the kinetic solubility was over 46.9 µg/mL.

`CCOC(=O)C1=C(N)Oc2cc(O)ccc2C1c1ccc(F)cc1F` (centres undefined) showed a kinetic solubility of under 0.7 µg/mL.

In the case of `Cc1ccc(C(=O)OC(C)CN2CCN(C)CC2)cc1.Cl` (centres undefined), the solubility (kinetic) came to 40.8 µg/mL.

`Cc1ccccc1OCc1ccc(C(=O)N2CC(C)OC(C)C2)o1` (centres undefined) yielded a kinetic solubility of 47.8 µg/mL (≈ 145 µM).

Regarding `CCOC1=CC(=O)N(Cc2ccccc2)C1`, the solubility (kinetic) was over 32.6 µg/mL.

In the case of `O=C(CN1CCN(Cc2ccccc2F)C1=O)NC1CCCC1`, the solubility (kinetic) was over 47.9 µg/mL.

Compound `CC(=NCC1CCCO1)c1c(O)n(C2CCCCC2)c(=O)[nH]c1=O` (centres undefined) returned a kinetic solubility of over 50.3 µg/mL.

The compound `O=C(NC(=S)NCc1ccccc1)c1ccccc1Br` came in with a kinetic solubility of under 0.4 µg/mL.

Regarding `Cc1[nH]c2ccccc2c1C(=O)CN1CC(C)CC(C)C1` (centres undefined), the solubility (kinetic) is over 42.7 µg/mL.

In the case of `O=C(CN1CCN(c2cccc(Cl)c2)CC1)NCc1ccccc1`, the solubility (kinetic) is 42.5 µg/mL (≈ 124 µM).

Compound `O=C(COC(=O)c1cccnc1Cl)Nc1cccc(S(=O)(=O)N2CCOCC2)c1` displayed a solubility (kinetic) of over 66 µg/mL.

In the case of `CCOC(=O)c1ccc(Nc2nc(C)cc(C)n2)cc1`, the kinetic solubility came to 0.2 µg/mL (≈ 0.737 µM).

`CCCCN(C)CCNC(=O)c1cn(C)c(=O)c2c1c1ccccc1n2C` came in with a kinetic solubility of over 55.3 µg/mL.

On to `CCCNC(=O)CN1C(=O)NC(CCc2ccccc2)C1=O` (centres undefined), for which the solubility (kinetic) is over 45.5 µg/mL.

As for `C(#Cc1ccccc1)CN1CCCCC1.Cl`, the kinetic solubility came to 25.6 µg/mL.

The compound `Cc1cc(C)cc(C(=O)NC2CC(C)(C)NC(C)(C)C2)c1` returned a kinetic solubility of over 43.3 µg/mL.

For the compound `N/C(=N\OC(=O)c1ccccc1F)c1cccc([N+](=O)[O-])c1`, the solubility (kinetic) amounted to 2.1 µg/mL (≈ 6.93 µM).

Compound `COc1cc(SC)ccc1C(=O)N(Cc1ccccc1)c1ccccc1` yielded a solubility (kinetic) of 6.3 µg/mL (≈ 17.3 µM).

`CC(NC(=O)COC(=O)C12CC3CC(CC(Br)(C3)C1)C2)c1ccccc1` (centres undefined) gave a kinetic solubility of 20.6 µg/mL (≈ 49 µM).

With `Cc1nc(SCC(N)=O)c([N+](=O)[O-])[nH]1`, the kinetic solubility is over 32.4 µg/mL.

`Cc1nc2ccc(NC(=S)NC3CCCCC3)cc2nc1C` showed a kinetic solubility of over 47.2 µg/mL.

Usually solubility (kinetic) stands for the concentration staying in solution when a stock, usually in DMSO, is diluted into the medium.
